How the values were obtained:
Assay type in all cases: functional
[1] = system: Mus musculus; assay: Analgesic activity in mouse assessed as pain threshold variation at 3 umol/kg, po after 90 mins (RVb = 0.17 +/- 0.14 %)
[2] = system: Mus musculus; assay: Analgesic activity in mouse assessed as pain threshold variation at 3 umol/kg, po after 150 mins (RVb = 0.16 +/- 0.13 %)
[3] = system: Mus musculus; assay: Analgesic activity in mouse assessed as pain threshold variation at 0.3 umol/kg, po after 30 mins (RVb = 0.13 +/- 0.14 %)
[4] = system: Mus musculus; assay: Analgesic activity in mouse assessed as pain threshold variation at 25 umol/kg, po after 30 mins (RVb = -1 +/- 2.8 %)
[5] = system: Mus musculus; assay: Analgesic activity in mouse assessed as pain threshold variation at 30 umol/kg, po after 90 mins (RVb = 0.17 +/- 0.14 %)
[6] = system: Mus musculus; assay: Analgesic activity in mouse assessed as pain threshold variation at 0.3 umol/kg, po after 90 mins (RVb = 0.17 +/- 0.14 %)
[7] = system: Mus musculus; assay: Analgesic activity in mouse assessed as pain threshold variation at 25 umol/kg, po after 60 mins (RVb = -6.5 +/- 1.79 %)
[8] = system: Mus musculus; assay: Analgesic activity in mouse assessed as pain threshold variation at 0.3 umol/kg, po after 120 mins (RVb = 0.18 +/- 0.15 %)
[9] = system: Mus musculus; assay: Analgesic activity in mouse assessed as pain threshold variation at 25 umol/kg, po after 150 mins (RVb = 3.98 +/- 4.03 %)
[10] = system: Mus musculus; assay: Analgesic activity in mouse assessed as pain threshold variation at 30 umol/kg, po after 120 mins (RVb = 0.18 +/- 0.15 %)
[11] = system: Mus musculus; assay: Analgesic activity in mouse assessed as pain threshold variation at 30 umol/kg, po after 180 mins (RVb = 0.15 +/- 0.12 %)
[12] = system: Mus musculus; assay: Analgesic activity in mouse assessed as pain threshold variation at 0.3 umol/kg, po after 60 mins (RVb = 0.15 +/- 0.16 %)
[13] = system: Mus musculus; assay: Analgesic activity in mouse assessed as pain threshold variation at 3 umol/kg, po after 120 mins (RVb = 0.18 +/- 0.15 %)
[14] = system: Mus musculus; assay: Analgesic activity in mouse assessed as pain threshold variation at 3 umol/kg, po after 60 mins (RVb = 0.15 +/- 0.16 %)
[15] = system: Mus musculus; assay: Analgesic activity in mouse assessed as pain threshold variation at 3 umol/kg, po after 30 mins (RVb = 0.13 +/- 0.14 %)
[16] = system: Mus musculus; assay: Analgesic activity in mouse assessed as pain threshold variation at 25 umol/kg, po after 90 mins (RVb = 0.2 +/- 3.75 %)
[17] = system: Mus musculus; assay: Analgesic activity in mouse assessed as pain threshold variation at 25 umol/kg, po after 120 mins (RVb = 0.69 +/- 1.98 %)
[18] = system: Mus musculus; assay: Analgesic activity in mouse assessed as pain threshold variation at 25 umol/kg, po after 180 mins (RVb = -5.10 %)
[19] = system: Mus musculus; assay: Analgesic activity in mouse assessed as pain threshold variation at 3 umol/kg, po after 180 mins (RVb = 0.15 +/- 0.12 %)
[20] = system: Mus musculus; assay: Analgesic activity in mouse assessed as pain threshold variation at 30 umol/kg, po after 30 mins (RVb = 0.13 +/- 0.14 %)
[21] = system: Mus musculus; assay: Analgesic activity in mouse assessed as pain threshold variation at 30 umol/kg, po after 150 mins (RVb = 0.16 +/- 0.13 %)
[22] = system: Mus musculus; assay: Analgesic activity in mouse assessed as pain threshold variation at 0.3 umol/kg, po after 180 mins (RVb = 0.15 +/- 0.12 %)
[23] = system: Mus musculus; assay: Analgesic activity in mouse assessed as pain threshold variation at 0.3 umol/kg, po after 150 mins (RVb = 0.16 +/- 0.13 %)
[24] = system: Mus musculus; assay: Analgesic activity in mouse assessed as pain threshold variation at 30 umol/kg, po after 60 mins (RVb = 0.15 +/- 0.16 %)

Row | SMILES | Activity [1] [%] | Activity [2] [%] | Activity [3] [%] | Activity [4] [%] | Activity [5] [%] | Activity [6] [%] | Activity [7] [%] | Activity [8] [%] | Activity [9] [%] | Activity [10] [%] | Activity [11] [%] | Activity [12] [%] | Activity [13] [%] | Activity [14] [%] | Activity [15] [%] | Activity [16] [%] | Activity [17] [%] | Activity [18] [%] | Activity [19] [%] | Activity [20] [%] | further results
1 | N=C(N)NCCC[C@H](NC(=O)CN(c1nc(Cl)nc2c1ncn2C1CCCCO1)C1CC1)C(=O)OCc1ccccc1 (stereo partly drawn) | 50.14 | 15 | 12.15 | 34.27 | 66.71 | 32.88 | 52.35 | 12.14 | 19.6 | 43.3 | 14.01 | 25.11 | 29.09 | 41.07 | 20.55 | 61.58 | 38.16 | 7.97 | 10.34 | 39.41 | Activity [21]: 24.69%; Activity [22]: 7.56%; Activity [23]: 10.03%; Activity [24]: 57.51%
2 | O=C(CN(c1nc(Cl)nc2c1ncn2C1CCCCO1)C1CC1)NCC(=O)OCc1ccccc1 (stereo not drawn) | 20.25 | 10.04 | 18 | 55.72 | 31.04 | 11.2 | 40.44 | 10.02 | 7.26 | 22.31 | 10.16 | 16.24 | 14.53 | 29.07 | 45.27 | 25.94 | 17.23 | 0.06 | 9.2 | 60.84 | Activity [21]: 12.33%; Activity [22]: 9%; Activity [23]: 9.45%; Activity [24]: 45.52%
